Experimental findings from the NIST ThermoML archive (doi:10.1021/je900302n) are described below.

± gives the expanded uncertainty stated by the source.

The conditions of this series: Liquid; pulse heating.

As for `CCCCCCCC[O][Ti]([O]CCCCCCCC)([O]CCCCCCCC)[O]CCCCCCCC` [tetraoctoxytitanium], the Critical pressure worked out at 660 ± 40 kPa and the Critical temperature is 831 ± 16 K.

On to `CCCCCCC[O][Ti]([O]CCCCCCC)([O]CCCCCCC)[O]CCCCCCC` [tetraheptoxytitanium], for which the Critical pressure turned out to be 730 ± 40 kPa and the Critical temperature is 808 ± 16 K.

For the molecule `CCCC[O-].CCCC[O-].CCCC[O-].CCCC[O-].[Ti+4]` [titanium(IV) butan-1-olate], the Critical pressure was found to be 1020 ± 60 kPa and the Critical temperature is listed as 719 ± 14 K.

For `CCCCCC[O][Ti]([O]CCCCCC)([O]CCCCCC)[O]CCCCCC` [tetrakis(hexyloxy)titanium], the Critical pressure was 780 ± 40 kPa and the Critical temperature is 780 ± 16 K.

`CCC[O-].CCC[O-].CCC[O-].CCC[O-].[Ti+4]` [tetrapropoxytitanium]: the Critical pressure worked out at 1150 ± 80 kPa and the Critical temperature turned out to be 685 ± 14 K.

Take `CCCCCCCCCC[O][Ti]([O]CCCCCCCCCC)([O]CCCCCCCCCC)[O]CCCCCCCCCC` [tetra(decyloxy)titanium]: the Critical pressure is on record as 610 ± 40 kPa and the Critical temperature came to 882 ± 18 K.

In the case of `CCCCCCCCC[O][Ti]([O]CCCCCCCCC)([O]CCCCCCCCC)[O]CCCCCCCCC` [tetranonoxytitanium], the Critical pressure stood at 630 ± 40 kPa and the Critical temperature is on record as 855 ± 18 K.

Consider `CC[O-].CC[O-].CC[O-].CC[O-].[Ti+4]` [tetraethoxytitanium], for which the Critical pressure came out at 1400 ± 80 kPa and the Critical temperature is on record as 647 ± 12 K.

As for `CCCCC[O][Ti]([O]CCCCC)([O]CCCCC)[O]CCCCC` [tetrakis(pentyloxy)titanium], the Critical pressure amounted to 910 ± 60 kPa and the Critical temperature was 751 ± 16 K.
